According to US20230066011A1, “PYRROLOPYRIMIDINE DERIVATIVE, AND PHARMACEUTICAL COMPOSITION FOR PREVENTING OR TREATING PROTEIN KINASE-RELATED DISEASE COMPRISING SAME AS ACTIVE INGREDIENT” (VORONOI CO., LTD., priority 2019, published 2023):

Key:
human GST-DYRK1A = target: T1, human GST-DYRK1A (Homo sapiens, UniProt Q13627); test: GST-DYRK1A enzyme inhibition, ADP-Glo kinase assay; format: biochemical; details: ATP 10 μM, GST-DYRK1A full length, read-out: DYRK1 IC50
T1 construct: purified human GST-DYRK1A (full length, Thermo Scientifics) enzyme; purchased Thermo Scientifics
Outline: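 Full-length human GST-DYRK1A (10 ng) with 10 μM ATP and specific substrate in 40 mM Tris-HCl pH 7.4, 20 mM MgCl2, 0.5 mg/mL BSA, 50 μM DTT, 1 h at 25 °C. ADP formation read by ADP-Glo luminescence relative to solvent control; IC50 from three data sets.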

human GST-CLK1 = target: T2, human GST-CLK1 (Homo sapiens, UniProt P49759); test: GST-CLK1 enzyme inhibition, ADP-Glo kinase assay; format: biochemical; details: ATP 10 μM, GST-CLK1 129-end
T2 construct: purified human GST-CLK1 (129-end, SignalChem) enzyme; purchased SignalChem
Outline: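 Human GST-CLK1 (129-end, 3 ng) reacted with substrate and 10 μM ATP for 1 h at 25° C in 40 mM Tris-HCl pH 7.4, 20 mM MgCl2, 0.5 mg/mL BSA, 50 μM DTT. ADP-Glo luminescence was normalised to solvent control; IC50 (nM) from 3 data sets.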

T2 sequence (P49759 129-484 limits assumed): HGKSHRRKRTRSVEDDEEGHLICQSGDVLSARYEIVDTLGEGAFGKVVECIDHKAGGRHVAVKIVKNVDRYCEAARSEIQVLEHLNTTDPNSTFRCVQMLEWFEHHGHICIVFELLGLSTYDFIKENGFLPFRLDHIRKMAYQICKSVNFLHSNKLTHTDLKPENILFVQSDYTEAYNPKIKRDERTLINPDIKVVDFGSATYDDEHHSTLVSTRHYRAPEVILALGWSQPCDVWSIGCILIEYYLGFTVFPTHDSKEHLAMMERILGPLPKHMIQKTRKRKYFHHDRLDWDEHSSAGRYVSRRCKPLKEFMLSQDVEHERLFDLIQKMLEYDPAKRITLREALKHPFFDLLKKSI

For `COc1cc(P(C)(C)=O)ccc1Nc1nc(NC2CCCC2)c2c(C#N)c[nH]c2n1` [Example 269, 4-(cyclopentylamino)-2-((4-(dimethylphosphoryl)-2-methoxyphenyl)amino)-7H-pyrrolo[2,3-d]pyrimidine-5-carbonitrile], the IC50 (human GST-DYRK1A) was 301 to 1000 nM and the IC50 (human GST-CLK1) was 101 to 300 nM.

For `CCCNc1nc(Nc2ccc(C(=O)N3CCOCC3)c3c2OCC3)nc2[nH]cc(C#N)c12` [Example 348, 2-((4-(morpholine-4-carbonyl)-2,3-dihydrobenzo-furan-7-yl)amino)-4-(propylamino)-7H-pyrrolo[2,3-d]pyrimidine-5-carbonitrile], the IC50 (human GST-DYRK1A) was 301 to 1000 nM and the IC50 (human GST-CLK1) was < 100 nM.

With `COc1cc(S(C)(=O)=O)ccc1Nc1nc(N[C@H]2CCOC2)c2c(C#N)c[nH]c2n1` [Example 108, (S)-2-((2-methoxy-4-(methylsulfonyl)phenyl)amino)-4-((tetrahydrofuran-3-yl)amino)-7H-pyrrolo[2,3-d]pyrimidine-5-carbonitrile] the IC50 (human GST-DYRK1A) was 301 to 1000 nM and the IC50 (human GST-CLK1) was < 100 nM.

`COc1cc(P2(=O)CCN(C3COC3)CC2)ccc1Nc1nc(NCC2CC2)c2c(C#N)c[nH]c2n1` [Example 305, 4-((cyclo-propylmeth-yl)amino)-2-((2-methoxy-4-(1-(oxetan-3-yl)-4-oxido-1,4-azaphosphinan-4-yl)phenyl)amino)-7H-pyrrolo[2,3-d]pyrimidine-5-carbonitrile] was tested, and the IC50 (human GST-DYRK1A) was 101 to 300 nM and the IC50 (human GST-CLK1) was < 100 nM.

`N#Cc1c[nH]c2nc(Nc3ccc(C(=O)N4CCOCC4)c4c3OCCO4)nc(N[C@@H]3CCOC3)c12` [Example 127, (R)-2-((8-(morpholine-4-carbonyl)-2,3-dihydrobenzo[b][1,4]dioxin-5-yl)amino)-4-((tetrahydrofuran-3-yl)amino)-7H-pyrrolo[2,3-d]pyrimidine-5-carbonitrile] was tested, and the IC50 (human GST-DYRK1A) was 301 to 1000 nM and the IC50 (human GST-CLK1) was < 100 nM.

`COCCNc1nc(Nc2ccc(C(=O)N3CCOCC3)c3c2OCC3)nc2[nH]cc(C#N)c12` [Example 358, 4-((2-methoxy-ethyl)ami-no)-2-((4-(morpholine-4-carbonyl)-2,3-dihydrobenzo-furan-7-yl)amino)-7H-pyrrolo[2,3-d]pyrimidine-5-carbonitrile] gave an IC50 (human GST-DYRK1A) of 101 to 300 nM and an IC50 (human GST-CLK1) of 101 to 300 nM.

`CC[C@@H](C)Nc1nc(Nc2ccc(C(=O)N3CC(CO)(CO)C3)c3c2OCCO3)nc2[nH]cc(C#N)c12` [Example 330, (R)-2-((8-(3,3-bis(hydroxy-methyl)azetidine-1-carbonyl)-2,3-dihydrobenzo[b] [1,4]dioxin-5-yl)amino)-4-(sec-butylamino)-7H-pyrrolo[2,3-d]pyrimidine-5-carbonitrile] was tested, and the IC50 (human GST-DYRK1A) was 301 to 1000 nM and the IC50 (human GST-CLK1) was < 100 nM.

`N#Cc1c[nH]c2nc(Nc3ccc(C(=O)N4CCOCC4)c4c3OCCO4)nc(N[C@H]3CCOC3)c12` [Example 128, (S)-2-((8-(morpholine-4-carbonyl)-2,3-dihydrobenzo[b][1,4]dioxin-5-yl)amino)-4-((tetrahydrofuran-3-yl)amino)-7H-pyrrolo[2,3-d]pyrimidine-5-carbonitrile] showed an IC50 (human GST-DYRK1A) of 301 to 1000 nM and an IC50 (human GST-CLK1) of 101 to 300 nM.

In the case of `CC[C@@H](C)Nc1nc(Nc2ccc(P3(=O)CCN(C4COC4)CC3)cc2OC)nc2[nH]cc(C#N)c12` [Example 295, (R)-4-(sec-butylamino)-2-((2-methoxy-4-(1-(oxetan-3-yl)-4-oxido-1,4-azaphosphinan-4-yl)phenyl)amino)-7H-pyrrolo[2,3-d]pyrimidine-5-carbonitrile], the IC50 (human GST-DYRK1A) is reported as 301 to 1000 nM and the IC50 (human GST-CLK1) is reported as < 100 nM.

`COCCNc1nc(Nc2ccc(S(=O)(=O)N3CCC(N4CCOCC4)CC3)cc2OC)nc2[nH]cc(C(N)=O)c12` [Example 233, 2-((2-methoxy-4-((4-morpholinopiperidin-1-yl)sulfonyl)phenyl)amino)-4-((2-methoxyethyl)amino)-7H-pyrrolo[2,3-d]pyrimdiine-5-carboxamide] was tested, and the IC50 (human GST-DYRK1A) was 301 to 1000 nM and the IC50 (human GST-CLK1) was 301 to 1000 nM.

With `CNc1nc(Nc2ccc(C(=O)N3CCN(C4COC4)CC3)c3c2OCCO3)nc2[nH]cc(C#N)c12` [Example 280, 4-(methylamino)-2-((8-(4-(oxetan-3-yl)piperazine-1-carbonyl)-2,3-dihydrobenzo[b][1,4]dioxin-5-yl)amino)-7H-pyrrolo[2,3-d]pyrimidine-5-carbonitrile] the IC50 (human GST-DYRK1A) was 101 to 300 nM and the IC50 (human GST-CLK1) was < 100 nM.

`O=C(c1ccc(Nc2nc(NCC3CCC3)c3c(C(F)(F)F)c[nH]c3n2)c2c1OCCO2)N1CCOCC1` [Example 193, (8-((4-((cyclobutylmethyl)amino)-5-(trifluoromethyl)-7H-pyrrolo[2,3-d]pyrimidin-2-yl)amino)-2,3-dihydrobenzo[b][1,4]dioxin-5-yl)(morpholino)methanone] was tested, and the IC50 (human GST-DYRK1A) was 301 to 1000 nM and the IC50 (human GST-CLK1) was 301 to 1000 nM.

For `N#Cc1c[nH]c2nc(Nc3ccc(C(=O)N4CCN(C5COC5)CC4)c4c3OCCO4)nc(NC3CC3)c12` [Example 287, 4-(cyclo-propylamino)-2-((8-(4-(oxetan-3-yl)piperazine-1-carbonyl)-2,3-dihydrobenzo[b] [1,4]dioxin-5-yl)amino)-7H-pyrrolo[2,3-d]pyrimidine-5-carbonitrile], the IC50 (human GST-DYRK1A) was 301 to 1000 nM and the IC50 (human GST-CLK1) was < 100 nM.

Compound `CC[C@@H](C)Nc1nc(Nc2ccc(S(=O)(=O)N3CCC(N4CCOCC4)CC3)cc2OC)nc2[nH]ccc12` [Example 15, (R)-N^4-(sec-butyl)-N^2-(2-methoxy-4-((4-morpholinopiperidin-1-yl)sulfonyl)phenyl)-7H-pyrrolo[2,3-d]pyrimidine-2,4-diamine] has an IC50 (human GST-DYRK1A) of 301 to 1000 nM and an IC50 (human GST-CLK1) of 301 to 1000 nM.

With `COc1cc(P(C)(C)=O)ccc1Nc1nc(NCC2CC2)c2c(C#N)c[nH]c2n1` [Example 273, 4-((cyclopropylmethyl)amino)-2-((4-(dimethylphosphoryl)-2-methoxyphenyl)amino)-7H-pyrrolo[2,3-d]pyrimidine-5-carbonitrile] the IC50 (human GST-DYRK1A) was 301 to 1000 nM and the IC50 (human GST-CLK1) was 101 to 300 nM.

With `CNc1nc(Nc2ccc(P3(=O)CCN(C4COC4)CC3)cc2OC)nc2[nH]cc(C#N)c12` [Example 154, 2-((2-methoxy-4-(1-(oxetan-3-yl)-4-oxido-1,4-azaphosphinan-4-yl)phenyl)amino)-4-(methylamino)-7H-pyrrolo[2,3-d]pyrimidine-5-carbonitrile] the IC50 (human GST-DYRK1A) was 301 to 1000 nM and the IC50 (human GST-CLK1) was 301 to 1000 nM.

`CC(C)CNc1nc(Nc2ccc(C(=O)N3CCC(N4CCOCC4)CC3)c3c2OCCO3)nc2[nH]cc(C(F)(F)F)c12` [Example 199, (8-((4-(isobutylamino)-5-(trifluoromethyl)-7H-pyrrolo[2,3-d]pyrimidin-2-yl)amino)-2,3-dihydrobenzo[b][1,4]dioxin-5-yl)(4-morpholinopiperidin-1-yl)methanone] was tested, and the IC50 (human GST-DYRK1A) was 301 to 1000 nM and the IC50 (human GST-CLK1) was < 100 nM.

`N#Cc1c[nH]c2nc(Nc3ccc(C(=O)N4CCN(C5COC5)CC4)c4c3OCCO4)nc(NCC3CC3)c12` [Example 317, 4-((cyclo-propylmeth-yl)amino)-2-((8-(4-(oxetan-3-yl)piperazine-1-carbonyl)-2,3-dihydrobenzo[b] [1,4]dioxin-5-yl)amino)-7H-pyrrolo[2,3-d]pyrimidine-5-carbonitrile] was tested, and the IC50 (human GST-DYRK1A) was 301 to 1000 nM and the IC50 (human GST-CLK1) was < 100 nM.

`O=C(c1ccc(Nc2nc(N[C@@H]3CCOC3)c3cc[nH]c3n2)c2c1OCCO2)N1CCOCC1` [Example 50, (R)-morpholino(8-((4-((tetrahydrofuran-3-yl)amino)-7H-pyrrolo[2,3-d]pyrimidin-2-yl)amino)-2,3-dihydrobenzo[b][1,4]dioxin-5-yl)methanone] was tested, and the IC50 (human GST-DYRK1A) was 301 to 1000 nM and the IC50 (human GST-CLK1) was 301 to 1000 nM.

For `CNc1nc(Nc2ccc(P3(=O)CCN(C4CC4)CC3)cc2OC)nc2[nH]cc(C#N)c12` [Example 279, 2-((4-(1-cyclopropyl-4-oxido-1,4-azaphosphinan-4-yl)-2-methoxyphenyl)amino)-4-(methylamino)-7H-pyrrolo[2,3-d]pyrimidine-5-carbonitrile], the IC50 (human GST-DYRK1A) was 301 to 1000 nM and the IC50 (human GST-CLK1) was 301 to 1000 nM.

In the case of `COc1cc(P(C)(C)=O)ccc1Nc1nc(NCC(C)C)c2c(C#N)c[nH]c2n1` [Example 255, 2-((4-(dimethylphosphoryl)-2-methoxyphenyl)amino)-4-(isobutylamino)-7H-pyrrolo[2,3-d]pyrimidine-5-carbonitrile], the IC50 (human GST-DYRK1A) is reported as 301 to 1000 nM and the IC50 (human GST-CLK1) is reported as 301 to 1000 nM.

In the case of `CC[C@H](C)Nc1nc(Nc2ccc(S(C)(=O)=O)cc2OC)nc2[nH]ccc12` [Example 18, (S)-N^4-(sec-butyl)-N^2-(2-methoxy-4-(4-methylsulfonyl)phenyl)-7H-pyrrolo[2,3-d]pyrimidine-2,4-diamine], the IC50 (human GST-DYRK1A) is reported as 301 to 1000 nM and the IC50 (human GST-CLK1) is reported as 301 to 1000 nM.

For `COc1cc(P(C)(C)=O)ccc1Nc1nc(NC2COC2)c2c(C#N)c[nH]c2n1` [Example 276, 2-((4-(dimethylphosphoryl)-2-methoxyphenyl)amino)-4-(oxetan-3-ylamino)-7H-pyrrolo[2,3-d]pyrimidine-5-carbonitrile], the IC50 (human GST-DYRK1A) was 301 to 1000 nM and the IC50 (human GST-CLK1) was 301 to 1000 nM.

In the case of `CCCNc1nc(Nc2ccc(P(C)(C)=O)cc2OC)nc2[nH]cc(C#N)c12` [Example 254, 2-((4-(dimethylphosphoryl)-2-methoxyphenyl)amino)-4-(propylamino)-7H-pyrrolo[2,3-d]pyrimidine-5-carbonitrile], the IC50 (human GST-DYRK1A) is reported as 101 to 300 nM and the IC50 (human GST-CLK1) is reported as 101 to 300 nM.

For `CCCNc1nc(Nc2ccc(P(C)(C)=O)cc2OC)nc2[nH]cc(C(F)(F)F)c12` [Example 369, (3-methoxy-4-((4-(propylamino)-5-(trifluoromethyl)-7H-pyrrolo[2,3-d]pyrimidin-2-yl)amino)phenyl) dimethyl-phosphine oxide], the IC50 (human GST-DYRK1A) was 101 to 300 nM and the IC50 (human GST-CLK1) was < 100 nM.
